Measurements: patent US4447608A, “Anti-cancer quinazoline derivatives” (priority 1979, dated 1984)
Entries after “also recorded” stand apart in the source; their conditions may differ. Read-outs that look alike come from different tables or passages of the source.

Legend:
L1210 cells [1] = assay: Growth inhibition of L1210 cells in suspension culture, 48 h count; format: cell-based; details: Mus musculus
Description: (§1) Cells were diluted to 10^5 /ml and additions (diluted in medium and sterilised in Millipore filtration) made prior to starting each incubation. Cell counts were performed after 24 and 48 hours using an improved Neubauer haemocytometer.

L1210 cells [2] = assay: Reversal of toxicity to L1210 cells in culture by thymidine; format: cell-based, mouse
Description: as §1, with “L1210 and L1210:R71 cells were grown in continuous suspension culture in RPMI 1640 medium containing 10% horse serum (Flow Laboratories, Irvine, Scotland; UK). Cells” for “Cells”

L1210 cells [3] = assay: Reversal of toxicity to L1210 cells in culture by folinic acid; format: cell-based, mouse; details: folinic acid up to 100 μM; FIG. 1: 20 μM CB 3717
Description: as §1, with “L1210 and L1210:R71 cells were grown in continuous suspension culture in RPMI 1640 medium containing 10% horse serum (Flow Laboratories, Irvine, Scotland; UK). Cells” for “Cells”

[4] = system: transport of tritiated methotrexate into L1210 cells; assay: Inhibition of transport of tritiated methotrexate into L1210 cells; format: cell-based, mouse
Description: (§2) The compounds of Example 2 were evaluated in vitro as inhibitors as TS and cell growth and in vivo against the L1210 tumour. Since methotrexate (MTX) resistance is an important problem in cancer therapy, the compounds of the present invention were also investigated with this in mind. The cross-resistance of the MTX resistant cell line L1210/R71, which is known to have elevated DHFR but normal MTX transport, was measured in culture, and the ability of the compounds of the invention to compete with labelled MTX or folic acid for transport into L1210 cells was also assessed.
(§3) Transport studies were conducted on compound CB 3717 as representative of the invention compounds by incubating cells in the presence of a labelled substance, removing aliquots, separating and washing the cells by centrifugation and counting the pellet.

[5] = system: transport of tritiated folic acid into L1210 cells; assay: Inhibition of transport of tritiated folic acid into L1210 cells; format: cell-based, mouse
Description: as §2, §3

L1210 tumour = assay: Treatment of L1210 ascitic tumour-bearing mice, survival; format: in vivo, mice (female C57B1×DBA2 F1 hybrid); details: for long term survivors (>120 days): FIG. 3
Description: (§4) The L1210 tumour was carried routinely in DBA2 mice. For experiments 5×10^4 cells were implanted i.p. into female C57B1×DBA2 F1 hybrid mice 3 days prior to treatment, giving an established tumour of about 2×10^6 cells at the time of treatment.
(Animals were injected with 20 mM NaHCO3 buffer 0.4 ml daily×5 days.
As the injection solutions could only be neutralised to pH 8.5 while preserving solubility, the appropriate controls were injected with bicarbonate at pH 8.5. […] For comparative purposes further groups of animals were treated with various doses of methotrexate, given on the same schedule.

[6] = Toxicity and body weight change in treated L1210 tumour-bearing mice; format: in vivo, mice (female C57B1×DBA2 F1 hybrid)
Description: as §4

L1210:R71 cells = assay: Growth inhibition of methotrexate-resistant L1210:R71 cells in suspension culture, 48 h count; format: cell-based, mouse; details: relative to L1210
Description: The compounds of Example 2 were evaluated in vitro as inhibitors as TS and cell growth and in vivo against the L1210 tumour. Since methotrexate (MTX) resistance is an important problem in cancer therapy, the compounds of the present invention were also investigated with this in mind.
as §1, with “L1210 and L1210:R71 cells were grown in continuous suspension culture in RPMI 1640 medium containing 10% horse serum (Flow Laboratories, Irvine, Scotland; UK). Cells” for “Cells”

[7] = majority of cell types; cited from earlier work
[8] = 8 mg/kg i.p., daily × 5, 5 animals
[9] = 16 mg/kg i.p., daily × 5, 5 animals, first 16 mg/kg line
[10] = 16 mg/kg i.p., daily × 5, 5 animals, second 16 mg/kg line
[11] = 32 mg/kg i.p., daily × 5, 5 animals
[12] = 64 mg/kg i.p., daily × 5, 5 animals
[13] = 80 mg/kg i.p., single dose, 5 animals
[14] = 128 mg/kg i.p., daily × 5, 5 animals
[15] = 160 mg/kg i.p., single dose, 5 animals
[16] = methotrexate 3 mg/kg (optimal dose), daily×5, 10 animals

C#CCN(Cc1ccc2nc(N)nc(O)c2c1)c1ccc(C(=O)N[C@@H](CCC(=O)O)C(=O)O)cc1 [CB 3717, N-(4-(N-((2-amino-4-hydroxy-6-quinazolinyl)methyl)prop-2-ynylamino)benzoyl)-L-glutamic acid]
IC50 (L1210 cells [1]; L1210, 48 h, second results table, read-out: ID50 L1210 (Tissue culture)): 6.5 to 8.5 µM | IC50 (L1210 cells [1]; L1210, Table 2, 48 hour count reduced to 50% of control, read-out: ID50 L1210): 5 µM | Reversal by thymidine (in culture) (L1210 cells [2]; second results table, L1210): yes | reversal of toxicity by co-incubation with thymidine (L1210 cells [2]; thymidine 10 μM, FIG. 1: 20 μM CB 3717): Reversal of the toxicity; also recorded: virtually complete protection | reversal of toxicity by folinic acid (L1210 cells [3]): only partial reversal; also recorded: does not reverse the effect | apparent transport by the pathway used for methotrexate [4]: can apparently be transported by the pathway used for methotrexate | effect on transport of tritiated methotrexate ([4]; 4 μM MTX, FIG. 2): inhibited; also recorded: dose-dependent reduction | apparent transport by the pathway for folic acid [5]: also by that for folic acid | effect on transport of tritiated folic acid ([5]; 4 μM folic acid, FIG. 2): inhibited; also recorded: dose-dependent reduction | % Increase in mean survival time (L1210 tumour; [8]): 8% | Long term survivors (>200 days) (L1210 tumour; [8]): 0 | % Increase in mean survival time (L1210 tumour; [9]): 13% | Long term survivors (>200 days) (L1210 tumour; [9]): 0 | % Increase in mean survival time (L1210 tumour; [10]): 29% | Long term survivors (>200 days) (L1210 tumour; [10]): 0 | % Increase in mean survival time (L1210 tumour; [11]): 62% | Long term survivors (>200 days) (L1210 tumour; [11]): 0 | % Increase in mean survival time (L1210 tumour; [12]): 72% | Long term survivors (>200 days) (L1210 tumour; [12]): 0 | % Increase in mean survival time (L1210 tumour; [13]): 14% | Long term survivors (>200 days) (L1210 tumour; [13]): 0 | Long term survivors (>200 days) (L1210 tumour; 125 mg/kg i.p., daily × 5, 10 animals): 9 | % Increase in mean survival time (L1210 tumour; 125 mg/kg i.p., daily × 5, 10 animals, see FIG. 3): > 1200% | long term survivors (>120 days) (L1210 tumour; 125 mg/kg, 5 daily doses): 9 out of 10 | % Increase in mean survival time (L1210 tumour; [14]): > 1200% | Long term survivors (>200 days) (L1210 tumour; [14]): 4 | % Increase in mean survival time (L1210 tumour; [15]): 32% | Long term survivors (>200 days) (L1210 tumour; [15]): 0 | Long term survivors (>200 days) (L1210 tumour; 200 mg/kg i.p., daily × 5, 10 animals): 9 | % Increase in mean survival time (L1210 tumour; 200 mg/kg i.p., daily × 5, 10 animals, see FIG. 3): > 1200% | long term survivors (>120 days) (L1210 tumour; 200 mg/kg, 5 daily doses): 9 out of 10 | increase in mean survival time with 5 daily dose schedule (L1210 tumour; 5 daily doses, see Table 3): dose related | difference in survival of CB 3717 and MTX treated animals, p (log rank test) (L1210 tumour; CB 3717 125 and 200 mg/kg vs MTX 3 mg/kg, daily×5): < 0.001 | body weight change / signs of toxicity ([6]; 5 daily doses, 125 and 200 mg/kg/day, groups of 10 mice, FIG. 4): did not lose a significant amount of weight or show other signs of toxicity | toxicity of single doses ([6]; single doses up to 160 mg/Kg i.p.): not toxic

CN(Cc1cnc2nc(N)nc(N)c2n1)c1ccc(C(=O)N[C@@H](CCC(=O)O)C(=O)O)cc1 [methotrexate, reference compound]
resistance of L1210:R71 to MTX (L1210:R71 cells): about 600 fold | increase in median lifespan (L1210 tumour; [16]): 71% | long term survivors (L1210 tumour; [16]): 2/10 | metabolic degradation [7]: does not undergo significant metabolic degradation
